Source: paper PMC9250534, “Synthesis and direct assay of large macrocycle diversities by combinatorial late-stage modification at picomole scale” (Nature Communications, 2022)
Numbered stars: 1 amine (or outer) side, 2 acyl side, 3 side chain; on linkers, the order of the positions; unused ones are H or OH. Bridge positions count the residues as written; N and C are the ends. Square brackets hold non-standard residues; d marks the D form. Peptide text beside a SMILES is read from it. * marks the point of attachment. ξ: configuration not given here. ξPro(4-NHCO(5-Cl-2-thienyl)) = O=C(NC1CNC(C(=O)O)C1)c1ccc(Cl)s1; 2Thenoyl(5-Cl) = O=C(c1ccc(Cl)s1)*; Pyrazinecarbonyl = O=C(c1cnccn1)*; Cysteamide = C(CS[*:3])N[*:1]; Isovaleryl = CC(C)CC(=O)*; dDap = NC[C@@H](N)C(=O)O; Api = NC1(C(=O)O)CCNCC1; Dap = NC[CH](N)C(=O)O; Bz = O=C(c1ccccc1)*; Mpa = O=C(O)CCS

Biological target: T1, thrombin (Homo sapiens, UniProt P00734)
T1 construct: consists of two polypeptide chains of 36 (light chain) and 259 amino acid
Experiment: Thrombin inhibition screen of crude macrocycle reactions (residual thrombin activity, fluorogenic substrate Z-Gly-Gly-Arg-AMC)
Assay type: biochemical
Settings: 10 µM macrocycle concentration; for % thrombin activity, Original screen / % thrombin activity, Repeat screen: macrocycles containing acid 14, crude reaction; for % thrombin activity, Repeat screen: replicate reaction and screen; for percent residual thrombin activity: crude reactions, Library 1a-l, scaffold AA1-AA2-AA3 combined with 1-16 or '-'
Method in brief: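 Residual activity was measured as the AMC release rate after adding 50 μM Z-Gly-Gly-Arg-AMC. This followed a 10-min room-temperature preincubation of 2 nM thrombin with 10 μM single macrocycles in pH 7.4 Tris buffer (0.6% DMSO). Percent inhibition was taken against the mean slope of DMSO controls.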

| SMILES | % thrombin activity, Original screen | % thrombin activity, Repeat screen | percent residual thrombin activity |
| --- | --- | --- | --- |
| CC(C)C[C@@H]1NC(=O)CCSSCCNC(=O)c2cccc(c2)CNC(=O)[C@H](CCCNC(=O)c2ccc(Cl)s2)NC1=O [X L D2 B5] | 100.1% | 95.2% |  |
| CC(C)C[C@@H]1NC(=O)CCSSCCNC(=O)[C@@H]2CCCN2C(=O)[C@@H](CNC(=O)c2ccc(Cl)s2)NC1=O [X L D4 B1] ([Mpa]L[dDap](2Thenoyl(5-Cl))P-Cysteamide; disulfide 1-C) | 107.5% | 100.9% |  |
| NC(=O)CC[C@@H]1NC(=O)CCSSCCNC(=O)C2(CCN(C(=O)c3ccc(Cl)s3)CC2)NC(=O)CCNC1=O [X Q B2 D6] | 97.4% | 98.1% |  |
| NC(=O)CC[C@@H]1NC(=O)CCSSCCNC(=O)C2(CCN(C(=O)c3ccc(Cl)s3)CC2)NC(=O)c2ccc(cc2)CNC1=O [X Q B3 D6] | 87.5% | 88.0% |  |
| O=C1CCSSCCNC(=O)C2CC(NC(=O)c3ccc(Cl)s3)CN2C(=O)CCNC(=O)C(CO)N1 (centres unmarked) [X S B2 D5] | 96.6% | 90.6% |  |
| CC(C)C1NC(=O)CCSSCCNC(=O)C(CNC(=O)c2ccc(Cl)s2)NC(=O)C2CCCN(C2)C1=O (centres unmarked) [X V B4 D3] | 75.0% | 73.4% |  |
| O=C1CCSSCCNC(=O)C2(CCN(C(=O)c3ccc(Cl)s3)CC2)NC(=O)[C@@H]2CCCN2C(=O)[C@H](Cc2c[nH]c3ccccc23)N1 [X W B1 D6] ([Mpa]WP[Api](2Thenoyl(5-Cl))-Cysteamide; disulfide 1-C) | 105.0% | 113.7% |  |
| O=C1CCSSCCNC(=O)[C@@H](CNC(=O)c2ccc(Cl)s2)NC(=O)[C@H]2CCCN(C2)C(=O)[C@H](Cc2c[nH]c3ccccc23)N1 [X W B4 D4] | 108.0% | 112.0% |  |
| O=C1CCSSCCNC(=O)[C@@H](CNC(=O)c2ccc(Cl)s2)NC(=O)c2cccc(c2)CNC(=O)[C@H](Cc2c[nH]c3ccccc23)N1 [X W B5 D4] | 103.8% | 106.8% |  |
| O=C1CCSSCCNC(=O)[C@H](CNC(=O)c2ccc(Cl)s2)NC(=O)C2(CC2)CNC(=O)[C@H](Cc2c[nH]c3ccccc23)N1 [X W B6 D3] | 65.4% | 56.1% |  |
| O=C1CCSSCCNC(=O)C2CCCN2C(=O)C2CC(NC(=O)c3ccc(Cl)s3)CN2C(=O)C(Cc2c[nH]c3ccccc23)N1 (centres unmarked) [X W D5 B1] ([Mpa]W[ξPro(4-NHCO(5-Cl-2-thienyl))]P-Cysteamide; disulfide 1-C; configuration not given here) | 113.1% | 119.4% |  |
| O=C1CCSSCCNC(=O)C2CCCN(C2)C(=O)C(CCCCNC(=O)c2ccc(Cl)s2)NC(=O)C(Cc2ccc(O)cc2)N1 (centres unmarked) [X Y D1 B4] | 97.9% | 97.0% |  |
| O=C1CCSSCCNC(=O)C2CCCN2C(=O)C2CC(NC(=O)c3ccc(Cl)s3)CN2C(=O)C(Cc2ccc(O)cc2)N1 (centres unmarked) [X Y D5 B1] ([Mpa]Y[ξPro(4-NHCO(5-Cl-2-thienyl))]P-Cysteamide; disulfide 1-C; configuration not given here) | 92.3% | 97.0% |  |
| CC1NC(=O)CCSSCCNC(=O)C(CCCCNC(=O)c2ccc(Cl)s2)NC(=O)C2CCCN2C1=O (centres unmarked) [X a B1 D1] ([Mpa]APK(2Thenoyl(5-Cl))-Cysteamide; disulfide 1-C; configuration not given here) | 106.8% | 115.5% |  |
| C[C@H]1NC(=O)CCSSCCNC(=O)[C@H](CCCCNC(=O)c2ccc(Cl)s2)NC(=O)CCNC1=O [X a B2 D1] | 95.2% | 101.4% |  |
| C[C@H]1NC(=O)CCSSCCNC(=O)[C@H]2CCCN(C2)C(=O)[C@H](CCCCNC(=O)c2ccc(Cl)s2)NC1=O [X a D1 B4] | 107.0% | 109.1% |  |
| CC1NC(=O)CCSSCCNC(=O)c2cccc(c2)CNC(=O)C(CCCCNC(=O)c2ccc(Cl)s2)NC1=O (centres unmarked) [X a D1 B5] | 102.5% | 104.4% |  |
| CC1NC(=O)CCSSCCNC(=O)C2CCCN(C2)C(=O)C(CNC(=O)c2ccc(Cl)s2)NC1=O (centres unmarked) [X a D3 B4] | 97.7% | 98.7% |  |
| CC1NC(=O)CCSSCCNC(=O)C2CCCN2C(=O)C(CNC(=O)c2ccc(Cl)s2)NC1=O (centres unmarked) [X a D4 B1] ([Mpa]A[Dap](2Thenoyl(5-Cl))P-Cysteamide; disulfide 1-C; configuration not given here) | 108.4% | 109.8% |  |
| C[C@H]1NC(=O)CCSSCCNC(=O)c2ccc(cc2)CNC(=O)[C@@H]2C[C@H](NC(=O)c3ccc(Cl)s3)CN2C1=O [X a D5 B3] | 110.0% | 116.2% |  |
| O=C1CCSSCCNC(=O)C2CC(NC(=O)c3ccc(Cl)s3)CN2C(=O)CCNC(=O)C(Cc2ccccc2)N1 (centres unmarked) [X f B2 D5] | 95.3% | 101.2% |  |
| O=C1CCSSCCNC(=O)C2CC(NC(=O)c3ccc(Cl)s3)CN2C(=O)C2CCCN(C2)C(=O)C(Cc2ccccc2)N1 (centres unmarked) [X f B4 D5] | 91.9% | 99.4% |  |
| O=C1CCSSCCNC(=O)c2ccc(cc2)CNC(=O)[C@H](CCCCNC(=O)c2ccc(Cl)s2)NC(=O)[C@@H](Cc2ccccc2)N1 [X f D1 B3] | 100.5% | 105.5% |  |

Other lines, results leading:

| % thrombin activity, Original screen | % thrombin activity, Repeat screen | percent residual thrombin activity | SMILES |
| --- | --- | --- | --- |
| 97.4% | 95.6% |  | O=C1CCNC(=O)C2(CCN(C(=O)c3ccc(Cl)s3)CC2)NC(=O)[C@@H](Cc2ccccc2)NC(=O)CCSSCCN1 [X f D6 B2] |
| 104.7% | 110.4% |  | O=C1CCSSCCNC(=O)C2(CCN(C(=O)c3ccc(Cl)s3)CC2)NC(=O)[C@@H]2CCCN2C(=O)[C@@H](CO)N1 [X s B1 D6] ([Mpa][dS]P[Api](2Thenoyl(5-Cl))-Cysteamide; disulfide 1-C) |
| 97.6% | 99.9% |  | O=C1CCSSCCNC(=O)C2CCCN2C(=O)C2(CCN(C(=O)c3ccc(Cl)s3)CC2)NC(=O)C(CO)N1 (centres unmarked) [X s D6 B1] ([Mpa]S[Api](2Thenoyl(5-Cl))P-Cysteamide; disulfide 1-C; configuration not given here) |
| 93.8% | 97.7% |  | O=C1CCSSCCNC(=O)[C@H]2CCCN(C2)C(=O)C2(CCN(C(=O)c3ccc(Cl)s3)CC2)NC(=O)[C@@H](CO)N1 [X s D6 B4] |
| 103.4% | 104.1% |  | CC(C)[C@H]1NC(=O)CCSSCCNC(=O)c2cccc(c2)CNC(=O)[C@@H](CNC(=O)c2ccc(Cl)s2)NC1=O [X v D4 B5] |
| 95.1% | 100.3% |  | O=C1CCSSCCNC(=O)c2cccc(c2)CNC(=O)[C@@H](CNC(=O)c2ccc(Cl)s2)NC(=O)[C@@H](Cc2c[nH]c3ccccc23)N1 [X w D4 B5] |
| 89.3% | 97.3% |  | O=C1CCSSCCNC(=O)C2(CC2)CNC(=O)C2(CCN(C(=O)c3ccc(Cl)s3)CC2)NC(=O)[C@@H](Cc2c[nH]c3ccccc23)N1 [X w D6 B6] |
| 109.6% | 115.2% |  | O=C1CCSSCCNC(=O)C2CCCN(C2)C(=O)C2CC(NC(=O)c3ccc(Cl)s3)CN2C(=O)C(Cc2ccc(O)cc2)N1 (centres unmarked) [X y D5 B4] |
|  |  | 103.469% | O=C1CCSSCCNC(=O)[C@H]2CCCN(C2)C(=O)[C@H](CCCCNC(=O)c2c[nH]c(=O)cn2)NC(=O)[C@H](Cc2ccc(O)cc2)N1 [Y-D1-B4/9] |
|  |  | 101.956% | COc1ccc(C(=O)NCCCC[C@@H]2NC(=O)[C@H](Cc3ccc(O)cc3)NC(=O)CCSSCCNC(=O)[C@H]3CCCN(C3)C2=O)cn1 [Y-D1-B4/10] |
|  |  | 107.832% | O=C1CCSSCCNC(=O)[C@H]2CCCN(C2)C(=O)[C@H](CCCCNC(=O)c2c[nH]c(=O)[nH]c2=O)NC(=O)[C@H](Cc2ccc(O)cc2)N1 [Y-D1-B4/11] |
|  |  | 97.8547% | O=C1CCSSCCNC(=O)[C@H]2CCCN(C2)C(=O)[C@H](CCCCNC(=O)c2ccc(Cl)s2)NC(=O)[C@H](Cc2ccc(O)cc2)N1 [Y-D1-B4/14] |
|  |  | 104.272% | Cc1nnsc1C(=O)NCCCC[C@@H]1NC(=O)[C@H](Cc2ccc(O)cc2)NC(=O)CCSSCCNC(=O)[C@H]2CCCN(C2)C1=O [Y-D1-B4/15] |
|  |  | 108.211% | NCCCC[C@@H]1NC(=O)[C@H](Cc2ccc(O)cc2)NC(=O)CCSSCCNC(=O)[C@H]2CCCN(C2)C1=O [Y-D1-B4/-] |
|  |  | 107.016% | CC1NC(=O)CCSSCCNC(=O)C(CCCCNC(=O)c2ccccc2)NC(=O)C2CCCN2C1=O (centres unmarked) [a-B1-D1/1] ([Mpa]APK(Bz)-Cysteamide; disulfide 1-C; configuration not given here) |
|  |  | 113.236% | C[C@H]1NC(=O)CCSSCCNC(=O)[C@H](CCCCNC(=O)c2cnccn2)NC(=O)[C@@H]2CCCN2C1=O [a-B1-D1/2] ([Mpa][dA]PK(Pyrazinecarbonyl)-Cysteamide; disulfide 1-C) |
|  |  | 110.343% | CC(C)CC(=O)NCCCC[C@@H]1NC(=O)[C@@H]2CCCN2C(=O)[C@@H](C)NC(=O)CCSSCCNC1=O [a-B1-D1/8] ([Mpa][dA]PK(Isovaleryl)-Cysteamide; disulfide 1-C) |
